Results taken from the NIST ThermoML archive (doi:10.1016/j.jct.2011.12.010).

Experiment: molar heat capacity at constant pressure
Conditions: 101.33 kPa, Vacuum adiabatic calorimetry

CC(C)(C)Cc1ccccc1 [(2,2-dimethylpropyl)benzene]
molar heat capacity at constant pressure [J/K/mol]
Conditions	Crystal	Liquid
5 K	0.3584	–
6.43 K	0.79	–
6.83 K	0.95	–
7.1 K	1.05	–
7.5 K	1.2	–
7.91 K	1.41	–
8.27 K	1.62	–
8.57 K	1.81	–
8.9 K	2.04	–
9.24 K	2.3	–
9.58 K	2.54	–
9.91 K	2.77	–
10 K	2.835	–
10.24 K	3	–
10.55 K	3.28	–
10.86 K	3.54	–
11.15 K	3.76	–
11.45 K	4.08	–
11.74 K	4.36	–
12.04 K	4.69	–
12.51 K	5.2	–
13.17 K	6	–
13.78 K	6.68	–
14.4 K	7.42	–
14.99 K	8.11	–
15 K	8.156	–
15.59 K	8.88	–
16.17 K	9.65	–
16.76 K	10.42	–
17.35 K	11.18	–
18.02 K	12.15	–
18.82 K	13.47	–
19.44 K	14.45	–
20 K	15.37	–
20.07 K	15.49	–
20.87 K	16.75	–
21.6 K	17.96	–
22.31 K	19.18	–
22.92 K	20.15	–
23.68 K	21.34	–
24.39 K	22.44	–
25 K	23.31	–
25.18 K	23.58	–
25.93 K	24.66	–
26.71 K	25.76	–
27.52 K	26.89	–
28.33 K	28.13	–
29.16 K	29.24	–
30 K	30.36	–
30.01 K	30.42	–
30.87 K	31.42	–
31.75 K	32.74	–
32.64 K	33.75	–
33.41 K	34.7	–
34.46 K	36.13	–
35 K	36.76	–
35.4 K	37.3	–
36.35 K	38.43	–
37.32 K	39.67	–
38.31 K	40.94	–
39.3 K	41.89	–
40 K	42.83	–
40.33 K	43.02	–
41.36 K	44.25	–
42.4 K	45.57	–
43.47 K	46.7	–
44.54 K	47.93	–
45 K	48.21	–
45.63 K	48.9	–
46.73 K	49.79	–
47.83 K	50.85	–
48.96 K	51.7	–
50 K	52.68	–
50.08 K	52.7	–
51.22 K	53.77	–
52.37 K	54.62	–
53.54 K	55.66	–
54.59 K	56.42	–
56 K	57.64	–
57.09 K	58.58	–
58.29 K	59.72	–
59.5 K	60.71	–
60 K	61.21	–
60.59 K	61.7	–
61.93 K	63.06	–
63.16 K	64.15	–
64.57 K	65.26	–
65.64 K	66.12	–
66.89 K	67.2	–
68.15 K	68	–
69.4 K	69.06	–
70 K	69.54	–
70.99 K	70.19	–
72.9 K	71.7	–
74.83 K	72.92	–
76.87 K	74.43	–
78.7 K	75.75	–
79.98 K	76.76	–
80 K	76.67	–
80.65 K	77.08	–
81.93 K	78.1	–
82.61 K	78.8	–
83.87 K	79.5	–
84.58 K	80.15	–
85.81 K	80.93	–
86.55 K	81.42	–
87.75 K	82.4	–
88.51 K	82.92	–
89.69 K	83.89	–
90 K	84.14	–
90.49 K	84.64	–
91.64 K	85.39	–
92.48 K	86.14	–
93.59 K	86.97	–
95.54 K	88.3	–
97.5 K	89.8	–
99.45 K	91.29	–
100 K	91.54	–
101.41 K	92.54	–
103.37 K	94.12	–
105.32 K	95.53	–
107.28 K	97.03	–
109.23 K	98.11	–
110 K	98.78	–
111.18 K	99.61	–
113.14 K	100.85	–
115.09 K	102.6	–
117.46 K	104.26	–
119.37 K	105.34	–
120 K	105.9	–
121.31 K	106.92	–
123.26 K	108	–
125.2 K	109.67	–
127.13 K	110.75	–
129.07 K	111.99	–
130 K	112.8	–
131 K	113.49	–
132.93 K	115.07	–
134.85 K	116.15	–
136.78 K	117.4	–
138.7 K	118.65	–
140 K	119.7	–
140.61 K	120.14	–
142.53 K	121.39	–
144.43 K	122.97	–
146.34 K	124.22	–
148.22 K	125.63	–
150 K	126.5	–
150.12 K	126.88	–
152.5 K	128.37	–
155.37 K	130.04	–
158.24 K	132.28	–
160 K	133.4	–
161.11 K	134.11	–
163.99 K	135.94	–
166.87 K	138.27	–
169.76 K	140.35	–
170 K	140.3	–
172.66 K	141.93	–
175.55 K	144.34	–
178.45 K	146.25	–
180 K	147.4	–
181.36 K	148.33	–
184.27 K	150.32	–
187.18 K	152.57	–
190 K	154.6	–
190.11 K	154.9	–
194.33 K	157.56	–
197.18 K	160.05	–
200 K	162	–
200.37 K	162.3	–
203.56 K	164.63	–
206.46 K	166.79	–
209.27 K	168.78	–
210 K	169.1	–
212.11 K	170.36	–
215.02 K	172.52	–
217.92 K	174.27	–
220 K	175.9	–
220.82 K	176.51	–
223.7 K	178.18	–
226.59 K	180.26	–
229.46 K	182.33	–
230 K	182.6	–
232.33 K	184.33	–
235.2 K	186.58	–
238.05 K	188.32	–
239.91 K	189.73	–
240 K	189.4	–
240.89 K	190.48	–
240.92 K	190.57	–
241.92 K	190.98	–
242.92 K	191.9	–
243.72 K	192.4	–
243.92 K	192.73	–
244.93 K	193.73	–
246 K	195.64	–
246.56 K	197.88	–
246.6 K	202.12	–
247.1 K	197.38	–
248.19 K	200.88	–
249.28 K	206.03	–
249.34 K	207.61	–
250 K	196.1	–
250.36 K	213.26	–
251.42 K	222.66	–
252.01 K	245.27	–
252.39 K	417.05	–
252.46 K	249.27	–
253.4 K	315.03	–
254.15 K	685.44	–
254.18 K	538.11	–
254.69 K	1232.2	–
254.95 K	2919.2	–
255.01 K	4462.3	–
255.06 K	8092.4	–
255.09 K	5555.7	–
255.17 K	8555.5	–
255.21 K	9885.8	–
255.43 K	199.7	249.6
256.43 K	–	250.01
257.37 K	–	252.18
257.44 K	–	250.6
258.44 K	–	251.09
258.78 K	–	252.09
259.45 K	–	251.68
260 K	–	252
260.46 K	–	252.26
261.48 K	–	252.92
262.48 K	–	253.42
263.49 K	–	254
264.48 K	–	254.59
264.99 K	–	254.92
265.49 K	–	255.09
266.49 K	–	255.67
267.49 K	–	256
268.67 K	–	256.58
270 K	–	257.2
271.15 K	–	257.83
277.28 K	–	260.82
280 K	–	262.5
283.39 K	–	264.31
289.47 K	–	267.64
290 K	–	268
295.52 K	–	270.8
298.15 K	–	271.9
300 K	–	272.6
300.23 K	–	272.71
300.79 K	–	273.13
301.54 K	–	273.46
304.11 K	–	274.29
304.68 K	–	274.54
307.54 K	–	275.37
307.98 K	–	275.62
308.57 K	–	275.71
310 K	–	276.3
311.84 K	–	276.95
312.43 K	–	277.2
313.51 K	–	277.62
315.67 K	–	278.2
316.31 K	–	278.53
319.32 K	–	279.36
319.51 K	–	279.86
320 K	–	279.8
320.02 K	–	279.95
323.33 K	–	281.36
323.89 K	–	281.44
325.26 K	–	281.86
327.15 K	–	283.02
327.74 K	–	283.02
330 K	–	284.4
330.95 K	–	285.27
331.19 K	–	285.18
331.59 K	–	285.27
334.56 K	–	287.35
335.41 K	–	288.01
337.07 K	–	289.09
338.32 K	–	289.92
339.23 K	–	290.51
340 K	–	290.8
342.07 K	–	292.33
342.92 K	–	292.67
343.02 K	–	292.75
345.8 K	–	294.83
346.79 K	–	295.24
348.74 K	–	295.99
349.52 K	–	296.82
350 K	–	297
350.54 K	–	297.49
